Patent publication US8058242B2, “Chimeric proteins with natriuretic activity” (The University of Queensland, priority 2004, dated 2011)
Positions of bridges follow the written chain, without caps; N, C: chain ends. Residues, ends and D or L forms follow the SMILES beside them.

Legend:
[1] = Stability assay in rat plasma (Example 6); assay type: in vitro ADME; conditions: 24 h at 37° C., read-out: peptide remaining in plasma
Protocol: Stability assay in human and rat plasma: Human or rat plasma (sample size 200 μL) was incubated at 37° C. for 5 min. 50 μL peptide stock solution (5 mg/mL) was added to the plasma. The vortexed reaction mixture was incubated at 37° C. Sample aliquots of 30 μL were taken from the reaction mixture at sequential intervals of 0 h, 1 h, 2 h, 4 h and 24 h and the sample reaction quenched immediately with 30 μL extraction buffer containing 50% Acetonitrile, 50% 0.1 M NaCl and 1% TFA. The quenched aliquots were cooled in ice for 5 min prior to centrifugation at 14,000 rpm for 15 min. 20 μl of the supernatant from each of the centrifuged aliquots was injected into RP-HPLC for analysis.

[2] = test system: normal rats; experiment: Hemodynamic parameters in normal anesthetized rats (Example 10)
[3] = target: T1, rat GC-A (Rattus norvegicus, UniProt P18910); experiment: Cell cyclic GMP elevations in HEK-293 cells stably expressing rat GC-A (Example 4); assay type: cell-based; conditions: 0.1 μM; 293 cells over-expressing GC-A
T1 construct: expressed in transfected cells
T1 sequence (P18910 29-1057): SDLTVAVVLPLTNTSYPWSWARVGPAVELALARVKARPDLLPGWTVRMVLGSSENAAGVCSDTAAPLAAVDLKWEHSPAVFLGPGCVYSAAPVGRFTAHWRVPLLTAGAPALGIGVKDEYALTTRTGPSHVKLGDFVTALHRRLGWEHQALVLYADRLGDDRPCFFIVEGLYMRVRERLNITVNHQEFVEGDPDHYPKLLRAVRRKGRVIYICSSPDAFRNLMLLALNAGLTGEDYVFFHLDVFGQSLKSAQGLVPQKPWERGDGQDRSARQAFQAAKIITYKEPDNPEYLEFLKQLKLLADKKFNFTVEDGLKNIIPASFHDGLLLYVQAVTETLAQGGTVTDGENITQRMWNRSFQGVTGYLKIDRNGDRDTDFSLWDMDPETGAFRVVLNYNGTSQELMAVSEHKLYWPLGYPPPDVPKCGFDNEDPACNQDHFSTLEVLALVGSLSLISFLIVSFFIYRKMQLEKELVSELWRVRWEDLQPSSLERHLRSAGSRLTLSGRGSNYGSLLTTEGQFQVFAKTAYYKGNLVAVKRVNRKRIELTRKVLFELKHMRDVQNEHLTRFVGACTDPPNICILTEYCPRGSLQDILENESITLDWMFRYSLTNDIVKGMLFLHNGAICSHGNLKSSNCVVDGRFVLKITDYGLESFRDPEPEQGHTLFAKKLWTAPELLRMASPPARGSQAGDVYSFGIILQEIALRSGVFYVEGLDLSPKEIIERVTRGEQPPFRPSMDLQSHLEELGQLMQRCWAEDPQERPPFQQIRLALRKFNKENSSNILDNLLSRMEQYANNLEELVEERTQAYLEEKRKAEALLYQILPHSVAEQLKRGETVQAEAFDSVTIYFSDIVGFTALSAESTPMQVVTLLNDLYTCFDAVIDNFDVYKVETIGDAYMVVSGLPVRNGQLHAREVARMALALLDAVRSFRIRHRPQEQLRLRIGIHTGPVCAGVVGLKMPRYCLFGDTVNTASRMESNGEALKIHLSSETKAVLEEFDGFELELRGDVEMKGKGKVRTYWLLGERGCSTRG
Text: The human embryonic kidney 293 (HEK-293) cell line was used for the stable expression of rat GC-A (GC-A/293). Cells expressing rat GC-A (GC-A/293) in the HEK-293 cell line were as previously described (Potter L. R., and Garbers D. L., (1992), J Biol Chem. 26, 14531-4) and determination of cGMP elevations was undertaken as previously described (Chrisman et al. T. D., Schulz, S., Potter, L. R. and Garbers, D. L., (1993,) J. Biol. Chem. (1993) 268 (5), 3698-3703). Responses were expressed as a percentage of the effect produced by ANP.

[4] = target: Endopeptidase (NEP) (EC 3.4.24.11) (Homo sapiens, UniProt P08473); experiment: Stability to enzymatic degradation by NEP (Examples 7, 16); assay type: in vitro ADME; conditions: over the 180 min measurement period, 37° C.
Protocol: The incubation buffer contained 100 mM Tris/HCl and 150 mM NaCl and the pH was adjusted to 7.2-7.4. In each assay, 100 μl of peptide [500 μM] was incubated with 300 μl buffer (with 500 ng Endopeptidase (NEP) or 10 μg Plasmin) at 37° C. 50 μl aliquots were taken at times 5 min, 30 min, 60 min, 90 min, 180 min and 24 h. The reaction was quenched by heating to 100° C. for 4 min and the remaining peptide concentrations measured by RP-HPLC. Note that the levels of Plasmin required to degrade these peptides was several thousands time the levels present in human plasma.
The stability of TDT and was investigated using the same enzymatic degradation assays (NEP, plasmin, pepsin) disclosed in Example 7. […] It is also evident that the increased NEP stability cannot be explained by the length of the tail region alone as the NEP cleavage site residues at the N-terminal end of the loop region.

Endopeptidase (NEP) (EC 3.4.24.11), sequence (P08473 whole entry): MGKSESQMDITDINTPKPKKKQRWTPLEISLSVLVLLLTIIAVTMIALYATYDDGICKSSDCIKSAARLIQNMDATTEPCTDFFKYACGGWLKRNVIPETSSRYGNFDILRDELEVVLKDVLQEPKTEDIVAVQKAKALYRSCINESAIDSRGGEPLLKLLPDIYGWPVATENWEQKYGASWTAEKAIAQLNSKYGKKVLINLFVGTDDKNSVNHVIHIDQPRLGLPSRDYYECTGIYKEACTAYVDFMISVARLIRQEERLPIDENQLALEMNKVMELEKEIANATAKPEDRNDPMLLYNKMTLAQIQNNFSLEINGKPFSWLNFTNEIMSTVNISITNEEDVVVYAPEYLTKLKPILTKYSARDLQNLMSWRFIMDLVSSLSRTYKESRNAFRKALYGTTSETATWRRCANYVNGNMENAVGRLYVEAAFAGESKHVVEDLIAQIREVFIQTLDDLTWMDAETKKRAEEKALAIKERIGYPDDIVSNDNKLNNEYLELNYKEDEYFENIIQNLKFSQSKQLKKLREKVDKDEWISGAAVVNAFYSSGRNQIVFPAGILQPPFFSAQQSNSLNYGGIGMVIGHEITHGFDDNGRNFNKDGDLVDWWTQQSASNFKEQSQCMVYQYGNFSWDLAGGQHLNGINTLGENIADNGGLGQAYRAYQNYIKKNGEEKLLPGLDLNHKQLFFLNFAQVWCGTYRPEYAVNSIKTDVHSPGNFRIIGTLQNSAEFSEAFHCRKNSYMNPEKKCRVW

Question: With `CC[C@H](C)[C@H](NC(=O)[C@H](CCCCN)NC(=O)[C@H](CO)NC(=O)[C@H](CC(=O)O)NC(=O)[C@@H](N)CO)C(=O)NCC(=O)N[C@@H](CC(N)=O)C(=O)NCC(=O)N[C@H]1CSSC[C@@H](C(=O)N[C@@H](CC(N)=O)C(=O)N[C@@H](CCCNC(=N)N)C(=O)N[C@H](C(=O)N[C@@H](CCSC)C(=O)N[C@@H](CCC(N)=O)C(=O)N[C@@H](CC(N)=O)C(=O)N2CCC[C@H]2C(=O)N2CCC[C@H]2C(=O)N[C@@H](CCCCN)C(=O)N[C@@H](CCCCN)C(=O)N[C@@H](Cc2ccccc2)C(=O)N[C@@H](CO)C(=O)NCC(=O)N[C@@H](CCC(=O)O)C(=O)O)[C@@H](C)CC)NC(=O)CNC(=O)[C@H](CC(C)C)NC(=O)CNC(=O)[C@H](CO)NC(=O)[C@H](C(C)C)NC(=O)[C@H](CO)NC(=O)CNC(=O)[C@H]([C@@H](C)CC)NC(=O)[C@H](CCCNC(=N)N)NC(=O)[C@H](CC(=O)O)NC(=O)[C@H](CC(C)C)NC(=O)[C@@H]2CCCN2C(=O)[C@H](Cc2ccccc2)NC(=O)CNC(=O)[C@H](Cc2ccccc2)NC1=O` [TNPc] (H-SDSKIGNGCFGFPLDRIGSVSGLGCNRIMQNPPKKFSGE-OH; disulfide 9-25) as the compound, how does the remaining at 24 h, 1 mg/mL [1] read?
Answer: 76%

Question: What about the “Blood Flow, mean change from control” value ([2]; 50 pmol/kg/min, 30 min) of the same compound?
Answer: -5.2 mL/min

Question: What about the “Conductance, mean change from control” value ([2]; 50 pmol/kg/min, 30 min) of the same compound?
Answer: −1.1 ml/min/mmHg

Question: What about the “Diastolic LVP, mean change from control” value ([2]; 50 pmol/kg/min, 30 min) of the same compound?
Answer: −1.4 mmHg

Question: And the “HCT, mean change from control” value ([2]; 50 pmol/kg/min, 30 min)?
Answer: −1.7%

Question: What about the “HR, mean change from control” value ([2]; 50 pmol/kg/min, 30 min) of the same compound?
Answer: −13.5 BPM

Question: And the “Mean BP, mean change from control” value ([2]; 50 pmol/kg/min, 30 min)?
Answer: −21.0 mmHg

Question: And the “Urine Flow, mean change from control” value ([2]; 50 pmol/kg/min, 30 min)?
Answer: 0.4 mL/h

Question: What about the “Blood Flow, mean change from control” value ([2]; 100 pmol/kg/min, 30 min) of the same compound?
Answer: -7.3 mL/min

Question: What about the “Conductance, mean change from control” value ([2]; 100 pmol/kg/min, 30 min) of the same compound?
Answer: −2.1 ml/min/mmHg

Question: And the “Diastolic LVP, mean change from control” value ([2]; 100 pmol/kg/min, 30 min)?
Answer: −0.9 mmHg

Question: What about the “HCT, mean change from control” value ([2]; 100 pmol/kg/min, 30 min) of the same compound?
Answer: −3.5%

Question: What about the “HR, mean change from control” value ([2]; 100 pmol/kg/min, 30 min) of the same compound?
Answer: −23.6 BPM

Question: What about the “Mean BP, mean change from control” value ([2]; 100 pmol/kg/min, 30 min) of the same compound?
Answer: −25.9 mmHg

Question: And the “Urine Flow, mean change from control” value ([2]; 100 pmol/kg/min, 30 min)?
Answer: 0.9 mL/h

Question: And the “Blood Flow, mean change from control” value ([2]; Recovery)?
Answer: -3.0 mL/min

Question: And the “Conductance, mean change from control” value ([2]; Recovery)?
Answer: −1.3 ml/min/mmHg

Question: What about the “Diastolic LVP, mean change from control” value ([2]; Recovery) of the same compound?
Answer: −0.6 mmHg

Question: And the “HCT, mean change from control” value ([2]; Recovery)?
Answer: 3.1%

Question: And the “HR, mean change from control” value ([2]; Recovery)?
Answer: −17.9 BPM

Question: What about the “Mean BP, mean change from control” value ([2]; Recovery) of the same compound?
Answer: −4.1 mmHg

Question: What about the “Urine Flow, mean change from control” value ([2]; Recovery) of the same compound?
Answer: 0.6 mL/h

Question: And the “Blood Flow, Average drug response SED” value ([2]; average of the two doses)?
Answer: -6.2 mL/min

Question: And the “Conductance, Average drug response SED” value ([2]; average of the two doses)?
Answer: −1.6 ml/min/mmHg

Question: And the “Diastolic LVP, Average drug response SED” value ([2]; average of the two doses)?
Answer: −1.1 mmHg

Question: What about the “HCT, Average drug response SED” value ([2]; average of the two doses) of the same compound?
Answer: −2.6%

Question: And the “HR, Average drug response SED” value ([2]; average of the two doses)?
Answer: −18.6 BPM

Question: And the “Mean BP, Average drug response SED” value ([2]; average of the two doses)?
Answer: −23.5 mmHg

Question: And the “Urine Flow, Average drug response SED” value ([2]; average of the two doses)?
Answer: 0.7 mL/h

Question: And the “cGMP elevations, percentage of the effect produced by ANP” value [3]?
Answer: equipotent to ANP and DNP

Question: What about the “degradation by NEP” value [4] of the same compound?
Answer: did not show any degradation
